Results published in patent US4904659A, “Substituted quinoline derivatives and pharmaceutical compositions thereof” (Development Finance Corporation of New Zeland, priority 1985, dated 1990).
Where two headings read alike, the source gives them in different places.

Assays:
[1] = Rm: lipophilic-hydrophilic balance from reversed phase partition chromatography; assay type: physicochemical; conditions: linearly related to 1-octanol/water partition coefficients
Excerpt: Rm-a measure of the compound's liphophilic-hydrophilic balance from reversed phase partition chromatography. Rm is linearly related to partition coefficients obtained in the 1-octanol/water system.

[2] = test system: L1210 leukemia cells; assay: Growth inhibition of cultured L1210 leukemia cells (70 h, counted cell numbers); assay type: cell-based; conditions: Mus musculus, L1210 leukemia cells, 70 h, cell numbers reduced to 50% of controls
[3] = test system: P388 leukemia; assay: In vivo antitumour activity against P388 leukemia (cells inoculated intraperitoneally); design: species or system mice (F1 hybrids of DBA/2J male x C57BL/6J female); conditions: for P388 in vivo ILS (percentage increase in lifespan) / P388 in vivo Active: P388 leukemia; for P388 in vivo ILS (percentage increase in lifespan): at optimal dose (OD), intraperitoneal, days 1, 5 and 9, control survival 11 days; for P388 in vivo Active: at the stated dose, ILS greater than 20% significant
Protocol: (§1) OD--The optimal drug dose (in milligrams per kilogram), administered intraperitoneally as a solution in 0.1 ml of 30% v/v ethyl alcohol in water on days 1, 5 and 9 after tumour inoculation. The drug is administered as a soluble acid addition salt.
(§2) ILSmax--The percentage increase in lifespan of treated animals over that of control animals injected with tumour alone. The average survival of control mice was 11 days (for P388 leukemia) and 17 days (for Lewis lung carcinoma) ILS values greater than 20% (P388 leukemia) and 40% (Lewis lung carcinoma) are considered statistically significant. Numbers in parentheses after ILS values indicate the number of long-term survivors (out of a group of 6).
(§3) Y--Implies a significant value of drug activity at the stated dose.
(§4) N--Implies no statistically significant activity.
(§5) Both of these tumour lines were obtained as frozen cell stocks from Mason Research Inc., USA and are passaged intraperitoneally in DBA/25 mice of either sex (P388) or subcutaneously in C57BL/65 mice of either sex (LL) according to the standard methods (Cancer Chemother. Reports., 3, Part 3, p9, 1972).
(§6) Groups of six mice (F1 hybrids of DBA/2J male x C57BL/6J female) were injected intraperitoneally (P388) or intravenously (tail vein, LL), with 10^6 tumour cells on day 0. When given in this manner, P388 cells grow diffusely in the peritoneal cavity, whereas the Lewis lung cells from distinct solid tumour nodules in the lungs. Antitumour activity is determined by published methods (European J. Cancer, 19, pp.1607-1613, 1983).

[4] = test system: Lewis lung carcinoma; assay: In vivo antitumour activity against Lewis lung carcinoma (cells inoculated intravenously); design: species or system mice (F1 hybrids of DBA/2J male x C57BL/6J female); conditions: for LL in vivo ILS (percentage increase in lifespan) / LL in vivo Active: Lewis lung carcinoma; for LL in vivo ILS (percentage increase in lifespan): at optimal dose (OD), intraperitoneal, days 1, 5 and 9, control survival 17 days; for LL in vivo Active: at the stated dose, ILS greater than 40% significant; for LL in vivo number of long-term survivors: number in parentheses after ILS, out of a group of 6, Lewis lung carcinoma
Protocol: as §1, §2, §3, §4
LL--Is the Lewis lung carcinoma.
as §5, §6

[5] = read-out: In vitro L1210 (IC50)

Row | SMILES | chromatographic logP [1] | IC50 [2, 5] [nM] | P388 in vivo ILS (percentage increase in lifespan) [3] [%] | P388 in vivo Active [3] | LL in vivo ILS (percentage increase in lifespan) [4] [%] | LL in vivo Active [4] | LL in vivo number of long-term survivors [4] | P388 in vivo number of long-term survivors ([3]; number in parentheses after ILS, out of a group of 6, P388 leukemia) | IC50 ([2]; read-out: In vitro L1210 (IC50), cell printed with unit nm) [nM]
1 | CN(C)CCCNC(=O)c1cccc2ccc(-c3ccccc3)nc12 [Compound 2] | 0.06 | 1140 | 71 | Y (Implies a significant value of drug activity at the stated dose) | < 40 | N (Implies no statistically significant activity) | – | – | –
2 | CN(C)CCCCNC(=O)c1cccc2ccc(-c3ccccc3)nc12 [Compound 3] | 0.14 | 680 | 93 | Y (Implies a significant value of drug activity at the stated dose) | 148 | Y (Implies a significant value of drug activity at the stated dose) | 2 | – | –
3 | CN(C)CCCCCNC(=O)c1cccc2ccc(-c3ccccc3)nc12 [Compound 4] | 0.21 | 1300 | < 20 | N (Implies no statistically significant activity) | < 40 | N (Implies no statistically significant activity) | – | – | –
4 | O=C(NCCNCCO)c1cccc2ccc(-c3ccccc3)nc12 [Compound 5] | – | – | < 20 | N (Implies no statistically significant activity) | – | – | – | – | –
5 | CN(C)CCNC(=O)c1cccc2ccc(-c3ccccn3)nc12 [Compound 7] | -1.43 | 1640 | 73 | Y (Implies a significant value of drug activity at the stated dose) | 91 | Y (Implies a significant value of drug activity at the stated dose) | – | 3 | –
6 | CN(C)CCNC(=O)c1cccc2ccc(-c3ccccc3Cl)nc12 [Compound 8] | 0.15 | 8100 | < 20 | N (Implies no statistically significant activity) | – | – | – | – | –
7 | CN(C)CCNC(=O)c1cccc2ccc(-c3cccnc3)nc12 [Compound 9] | -0.58 | 840 | 58 | Y (Implies a significant value of drug activity at the stated dose) | 52 | Y (Implies a significant value of drug activity at the stated dose) | 2 | – | –
8 | CN(C)CCNC(=O)c1cccc2ccc(-c3cccc(Cl)c3)nc12 [Compound 10] | 0.05 | 1200 | 40 | Y (Implies a significant value of drug activity at the stated dose) | < 40 | N (Implies no statistically significant activity) | – | – | –
9 | COc1cccc(-c2ccc3cccc(C(=O)NCCN(C)C)c3n2)c1 [Compound 11] | – | 860 | 46 | Y (Implies a significant value of drug activity at the stated dose) | – | – | – | – | –
10 | CN(C)CCNC(=O)c1cccc2ccc(-c3ccc(F)cc3)nc12 [Compound 13] | – | – | < 20 | N (Implies no statistically significant activity) | – | – | – | – | –
11 | CN(C)CCNC(=O)c1cccc2ccc(-c3ccc(Cl)cc3)nc12 [Compound 14] | 0.05 | 1170 | 52 | Y (Implies a significant value of drug activity at the stated dose) | 91 | Y (Implies a significant value of drug activity at the stated dose) | 4 | – | –
12 | CN(C)CCNC(=O)c1cccc2ccc(-c3ccc(Br)cc3)nc12 [Compound 15] | – | 600 | 72 | Y (Implies a significant value of drug activity at the stated dose) | – | – | – | – | –
13 | CN(C)CCNC(=O)c1cccc2ccc(-c3ccc(I)cc3)nc12 [Compound 16] | – | – | 48 | Y (Implies a significant value of drug activity at the stated dose) | – | – | – | – | –
14 | CN(C)CCNC(=O)c1cccc2ccc(-c3ccc(-c4ccccc4)cc3)nc12 [Compound 17] | – | 1290 | < 20 | N (Implies no statistically significant activity) | – | – | – | – | –
15 | COc1ccc(-c2ccc3cccc(C(=O)NCCN(C)C)c3n2)cc1 [Compound 18] | -0.16 | – | 42 | Y (Implies a significant value of drug activity at the stated dose) | – | – | – | – | 1290
16 | CN(C)CCNC(=O)c1cccc2ccc(-c3ccc(O)cc3)nc12 [Compound 19] | -0.33 | 27 | 22 | Y (Implies a significant value of drug activity at the stated dose) | – | – | – | – | –
17 | CN(C)CCNC(=O)c1cccc2ccc(-c3ccc([N+](=O)[O-])cc3)nc12 [Compound 20] | -0.18 | 290 | 71 | Y (Implies a significant value of drug activity at the stated dose) | 85 | Y (Implies a significant value of drug activity at the stated dose) | – | – | –
18 | CN(C)CCNC(=O)c1cccc2ccc(-c3ccc(N)cc3)nc12 [Compound 21] | -0.76 | 200 | 28 | Y (Implies a significant value of drug activity at the stated dose) | 65 | Y (Implies a significant value of drug activity at the stated dose) | – | – | –
19 | CC(=O)Nc1ccc(-c2ccc3cccc(C(=O)NCCN(C)C)c3n2)cc1 [Compound 22] | – | 740 | < 20 | N (Implies no statistically significant activity) | – | – | – | – | –
20 | CN(C)CCNC(=O)c1cccc2ccc(-c3ccc(NS(C)(=O)=O)cc3)nc12 [Compound 23] | -0.38 | 1330 | < 20 | N (Implies no statistically significant activity) | – | – | – | – | –
21 | CN(C)CCNC(=O)c1ccc(Cl)c2ccc(-c3ccccc3)nc12 [Compound 25] | – | – | 63 | Y (Implies a significant value of drug activity at the stated dose) | – | – | – | – | –
22 | CN(C)CCNC(=O)c1cc([N+](=O)[O-])cc2ccc(-c3ccccc3)nc12 [Compound 26] | – | – | 63 | Y (Implies a significant value of drug activity at the stated dose) | – | – | – | – | –
